Measurements: patent US20220288051A1, “METHODS FOR TREATING CANCER USING SERIAL ADMINISTRATION OF E3 UBIQUITIN LIGASE DEGRADERS” (Dana-Farber Cancer Institute, Inc., priority 2019, published 2022)

What was measured:
human MM cell lines = experiment: CTG / CS-BLI cell viability of human MM cell lines; type: cell-based
Procedure: Cell viability and growth of human MM cell lines were assessed using CellTitre-Glo (CTG) assay (Promega, Madison, Wis.) per kit instructions, or CS-BLI as described (Delmore et al., 2011). Briefly, cells were seeded (5×10^3 cells/well) into 96- or 384-well opaque plates, in supplemented media (40 or 50 uL) and incubated for 24 h prior to addition of drug. For co-culture experiments, HS27A cells were pre-seeded (5×10^3 cells/well) into each well in media prior (24 h) to the addition of MM cells. At each time point (24 h, 48 h, and/or 72 h) CTG reagent (10% volume) was added to each well, and plates were read using a microplate reader (BioTek Synergy 2, BioTek, Winooski, Va.).

BRD3 = molecular target: T1, BRD3 (Homo sapiens, UniProt Q15059); experiment: Immunoblotting of degronimid-treated MM.1S cells: BRD3; type: cell-based; settings: 0.01-1 μM, 4 h
T1 construct: endogenous in cells; host or cells: MM.1S
T1 sequence (Q15059 whole entry): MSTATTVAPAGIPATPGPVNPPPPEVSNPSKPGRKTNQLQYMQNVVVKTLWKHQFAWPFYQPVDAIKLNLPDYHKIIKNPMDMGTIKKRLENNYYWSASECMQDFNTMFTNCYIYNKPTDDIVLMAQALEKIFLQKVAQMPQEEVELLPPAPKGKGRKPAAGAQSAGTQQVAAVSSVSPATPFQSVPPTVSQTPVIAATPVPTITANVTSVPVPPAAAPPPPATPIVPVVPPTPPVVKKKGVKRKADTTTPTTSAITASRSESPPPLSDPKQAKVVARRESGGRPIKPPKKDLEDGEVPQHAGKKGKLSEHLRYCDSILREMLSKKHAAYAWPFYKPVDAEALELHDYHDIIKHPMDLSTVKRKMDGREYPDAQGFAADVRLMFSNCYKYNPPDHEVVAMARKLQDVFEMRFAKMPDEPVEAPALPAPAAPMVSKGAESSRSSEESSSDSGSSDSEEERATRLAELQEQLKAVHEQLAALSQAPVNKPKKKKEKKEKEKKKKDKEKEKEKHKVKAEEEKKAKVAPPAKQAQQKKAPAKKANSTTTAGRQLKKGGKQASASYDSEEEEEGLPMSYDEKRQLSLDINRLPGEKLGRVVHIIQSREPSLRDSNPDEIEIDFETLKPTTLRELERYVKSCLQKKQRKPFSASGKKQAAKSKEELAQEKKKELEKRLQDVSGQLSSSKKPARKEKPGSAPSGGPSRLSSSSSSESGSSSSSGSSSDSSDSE
Procedure: (§1) MM.1S cells were seeded in 6-well plates at 3×10^6 cells/well (˜24 h prior to addition of drug). […] Cell pellets were thawed on ice, lysed using RIPA buffer (ThermoFisher) with protease/phosphatase inhibitor cocktail (Cell Signal Technology, Danvers, Mass.) by incubating on ice 30 min. The lysates were clarified by spinning at 10,000 g for 10 min at 4° C. and the concentration of the lysate was determined using BCA protocol (ThermoFisher). Samples were prepared for Western blot using LDS sample buffer (NuPage, Invitrogen, Carlsbad, Calif., USA) with sample reducing agent (NuPage, Invitrogen) and heated to 95° C. for 5 min. Samples were loaded (20 ug/sample) into Tris-acetate or Bis-Tris gels (NuPage, Invitrogen) and run as per kit instructions using appropriate running buffers. Gels were transferred as described (Matthews et al., 2015) onto PVDF membrane using SDS-based transfer buffer (NuPage, Invitrogen). Membranes were blocked (5% skim milk; or 5% bovine serum albumin in TBS-T) for at least 30 min then probed with primary antibodies overnight (4° C.). […] Each protein of interest (BRD2, BRD3, BRD4, c-myc and CDK9) was assessed in a separate gel and corresponding membrane (which was simultaneously incubated with antibodies for both the target protein of interest and GAPDH, to provide a loading control within the same blot). […]

BRD2 = molecular target: T2, BRD2 (Homo sapiens, UniProt P25440); experiment: Immunoblotting of degronimid-treated MM.1S cells: BRD2; type: cell-based; settings: 0.01-1 μM, 4 h
T2 construct: endogenous in cells; host or cells: MM.1S
T2 sequence (P25440 whole entry): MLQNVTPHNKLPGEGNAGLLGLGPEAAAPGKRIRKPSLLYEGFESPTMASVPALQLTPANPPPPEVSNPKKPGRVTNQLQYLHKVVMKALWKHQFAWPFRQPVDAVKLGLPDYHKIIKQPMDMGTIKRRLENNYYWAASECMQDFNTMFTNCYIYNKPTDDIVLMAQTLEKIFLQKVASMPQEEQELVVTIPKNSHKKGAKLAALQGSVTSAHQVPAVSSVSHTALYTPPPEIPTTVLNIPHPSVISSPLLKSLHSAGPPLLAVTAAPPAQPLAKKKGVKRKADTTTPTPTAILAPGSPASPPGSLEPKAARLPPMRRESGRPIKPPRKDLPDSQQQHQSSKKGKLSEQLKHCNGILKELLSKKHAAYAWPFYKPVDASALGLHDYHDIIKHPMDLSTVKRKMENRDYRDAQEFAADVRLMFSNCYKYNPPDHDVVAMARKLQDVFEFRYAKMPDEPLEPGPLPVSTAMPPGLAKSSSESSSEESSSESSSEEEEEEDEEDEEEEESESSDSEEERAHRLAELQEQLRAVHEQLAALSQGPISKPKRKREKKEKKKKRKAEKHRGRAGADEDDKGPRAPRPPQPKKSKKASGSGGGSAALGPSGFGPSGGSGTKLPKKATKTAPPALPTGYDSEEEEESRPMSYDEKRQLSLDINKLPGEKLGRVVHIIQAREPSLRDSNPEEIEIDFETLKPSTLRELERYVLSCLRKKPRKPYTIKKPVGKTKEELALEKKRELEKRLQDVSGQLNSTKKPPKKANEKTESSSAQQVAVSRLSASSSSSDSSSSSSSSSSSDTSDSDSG
Procedure: as §1

MM.1S cells [1] = experiment: Assessment of apoptosis, Annexin V/PI flow cytometry; type: cell-based, human
Procedure: For the assessment of apoptosis, MM.1S cells were seeded into 6-well plates (2×10^6 cells/well) in medium supplemented with 10% FBS and penicillin/streptomycin (3.2 mL) 24 h prior to treatment. Cells were treated with dBET6, JQ1, or vehicle and harvested prior to staining with Annexin V-FITC and PI (BD, Bedford, Mass.). Apoptosis was assessed immediately using flow cytometry (LSR II, BD, Bedford, Mass.)

MM.1S cells [2] = experiment: RNA-sequencing of treated MM.1S cells; type: cell-based, human
human MM.1S cells [3] = experiment: Subcutaneous MM xenograft model; type: in vivo, NSG mice
Procedure: i. Subcutaneous MM xenograft model: Luciferase-positive MM.1S cells (10×106 Luc-GFP-MM.1S in matrigel) were transplanted into the right flank of NSG mice (100 μL). […] Treatments were carried out daily for 8 days and tumor size assessed daily using calipers. Mice were culled when tumors reached 2000 mm3 or when moribund.

human MM.1S cells [4] = experiment: Xenograft model of diffuse MM lesions; type: in vivo, NSG mice; settings: 20 mg/kg, QD, 12 days
Procedure: ii. Xenograft model of diffuse MM lesions: Luciferase-positive MM.1S cells (1×106 Luc-GFP-MM.1S) were injected via the tail vein (IV) into NSG mice. […] BLI was undertaken weekly and mice were euthanized when moribund or upon signs of hind-limb paralysis.

patient-derived MM cells = experiment: Ex vivo treatment of patient-derived CD138+ tumor cells, CTG; type: cell-based, human; settings: variable prior therapies
Procedure: Bone marrow aspirates (1-4 mL) from individuals with MM (newly diagnosed, smoldering, relapsed/refractory, maintenance treatment) or MGUS were collected after patients provided informed consent and based on tissue collection protocol approved by the Dana-Farber Cancer Institute Institutional Review Board. Samples were processed for separation of CD138+ plasma cells, using CD138-positive selection beads, and immunomagnetic separation, as per kit instructions (EasySep, StemCell, Cambridge, Mass.). Patient-derived tumor cells were cultured in RPMI 1640 medium supplemented with L-glutamine (Life Technologies, Carlsbad, Calif., USA), FBS (10%) (Gemini Bioproducts, Woodland, Calif.), 20 I.U./mL penicillin and 20 μg/mL streptomycin (Fisher Scientific, Springfield, N.J., USA) and hIL-6 (Thermo Fisher Scientific, Waltham, Mass., USA […]).
Samples were processed for separation of CD138+ plasma cells, using CD138-positive selection beads, and immunomagnetic separation, as per kit instructions (EasySep, StemCell, Cambridge, Mass.). […] Viability was assessed using CTG, as described (24 h, 48 h, 72 h) and each treatment was repeated up to 3 times (n=3 biological replicates).

CDK9 = experiment: Immunoblotting of degronimid-treated MM.1S cells: CDK9; type: cell-based, human; settings: 0.01-1 μM, 4 h
Procedure: as §1

## Cc1sc2c(c1C)C(c1ccc(Cl)cc1)=N[C@@H](CC(=O)NCCCCCCCCNC(=O)COc1cccc3c1C(=O)N(C1CCC(=O)NC1=O)C3=O)c1nnc(C)n1-2 (some centres unmarked) [dBET6]
Human MM cell lines; MM.1S, RPMI-8226, JJN3, 48 h, CTG or CS-BLI, vs JQ1
  suppression of MM cell viability: more pronounced suppression of MM cell viability than JQ1
Human MM cell lines; human MM cell lines, dBET6 compared to dBET1 or JQ1
  in vitro anti-MM activity: more potent in vitro anti-MM activity of dBET6 compared to dBET1 or JQ1
Human MM cell lines; larger panel of human MM cell lines, 48 h
  loss of viability: significant loss of viability in all lines tested
BRD3
  BRD3 protein levels: rapid and robust depletion
BRD2
  BRD2 protein levels: rapid and robust depletion
MM.1S cells [1]; MM.1S cells, Annexin V/PI staining
  exposure prior to drug washout sufficient to commit cells to cell death: ≤ 4 h
MM.1S cells [1]; human MM.1S cells, 0.01 μM or 0.05 μM
  pro-apoptotic response: dose- and time-dependent pro-apoptotic response
MM.1S cells [2]; dBET6 0.1 or 0.5 μM vs JQ1 0.5 μM, 4 h
  transcriptional profile (RNA-Seq), down-regulated transcripts: down-regulation of a larger group of transcripts
MM.1S cells [2]; dBET6 vs JQ1-treated MM.1S cells
  suppression of c-MYC at transcript level: more pronounced suppression of c-MYC
Human MM.1S cells [3]; 30 mg/kg, QD, 8d, IP
  rate of tumor growth increase: significantly suppressed the rate of tumor growth increase
Human MM.1S cells [3]; 30 mg/kg, QD, 8d, p<0.05
  increase in overall survival: 10 days
Human MM.1S cells [3]; subcutaneous MM xenografts
  survival: prolongation of survival
Human MM.1S cells [3]; subcutaneous MM.1S xenograft
  tumor burden vs vehicle: significantly lower tumor burden
Human MM.1S cells [4]
  overall survival: only minimal overall survival advantage
  tumor burden measured by BLI vs vehicle: significantly lower tumor burden
patient-derived MM cells
  response of patient-derived cells: dose-dependent response

## CC(C)(C)c1cnc(CSc2cnc(NC(=O)C3CCN(CC(=O)NCCOCCOCCOCCNc4cccc5c4C(=O)N(C4CCC(=O)NC4=O)C5=O)CC3)s2)o1 (centres unmarked) [Thal-SNS-032]
CDK9
  CDK9 protein levels: causes degradation of CDK9
